Counter-ions that a name gives are not always drawn.
Legend:
[1] = Solubilities of active ingredient in various solvents (excess added, shaken 2 hours, centrifuged, HPLC); assay type: physicochemical
Method: In order to find out the most suitable solvent for the solid dispersion, an excessive amount of HM30181A, as an active ingredient, was added to a solvent, shook for 2 hours, and then the resulting mixture was centrifuged and analyzed by HPLC to measure the solubility. Solvents used for solubility test were MC, methanol, EtOH, hexane, diethyl ether, isopropyl alcohol, acetone and DW.

[2] = Dissolution characteristics of HM30181A in mixed solvents of MC, EtOH and DW; assay type: physicochemical
[3] = Composition 1: HM30181A 15 mg, methylene chloride 450 mg, ethanol 50 mg, distilled water 0 mg
[4] = Composition 2: HM30181A 15 mg, methylene chloride 350 mg, ethanol 150 mg, distilled water 0 mg
[5] = Composition 3: HM30181A 15 mg, methylene chloride 250 mg, ethanol 250 mg, distilled water 0 mg
[6] = Composition 5: HM30181A 15 mg, methylene chloride 350 mg, ethanol 150 mg, distilled water 25 mg

- Solubility ([1]; solvent: acetone): 9.23 ppm
- Solubility ([1]; solvent: diethyl ether): 0.00 ppm
- Solubility ([1]; solvent: distilled water): 0.00 ppm
- Solubility ([1]; solvent: ethanol): 382.63 ppm
- Solubility ([1]; solvent: hexane): 0.05 ppm
- Solubility ([1]; solvent: isopropyl alcohol): 31.29 ppm
- Solubility ([1]; solvent: methanol): 10177.50 ppm
- Solubility ([1]; solvent: methylene chloride): 6848.28 ppm
- Solubility [2, 3]: 10,260 ppm
- Solution appearance [2, 3]: Clouded
- Solubility [2, 4]: 20,370 ppm
- Solution appearance [2, 4]: Clouded
- Solubility [2, 5]: 4,710 ppm
- Solution appearance [2, 5]: Clouded
- Solubility [2, 6]: 27,850 ppm
- Solution appearance [2, 6]: Clear
Structure (SMILES): COc1cc2c(cc1OC)CN(CCc1ccc(-n3nnc(-c4cc(OC)c(OC)cc4NC(=O)c4cc(=O)c5ccccc5o4)n3)cc1)CC2 [HM30181A, chromone-2-carboxylic acid [2-(2-{4-[2-(6,7-dimethoxy-3,4-di-hydro-1H-isoquinolin-2-yl)-ethyl]-phenyl}-2H-tetrazol-5-yl)-4,5-dimethoxyphenyl]amine mesylate]

Source: US9283218B2, “Solid dispersion with improved solubility comprising tetrazole derivative as an active ingredient” (HANMI PHARM. CO., LTD., priority 2012, dated 2016)
